The text below walks through data of patent US20250127905A1, “GLUTARIMIDE COMPOUND AND USE THEREOF” (MEDSHINE DISCOVERY INC., priority 2021, published 2025).

One series deals with T1, IRAK4 (Homo sapiens, UniProt Q9NWZ3).
T1 construct: expressed in transfected cells; host or cells: K562 IRAK4-HiBiT cells
T1 sequence (Q9NWZ3 1-460): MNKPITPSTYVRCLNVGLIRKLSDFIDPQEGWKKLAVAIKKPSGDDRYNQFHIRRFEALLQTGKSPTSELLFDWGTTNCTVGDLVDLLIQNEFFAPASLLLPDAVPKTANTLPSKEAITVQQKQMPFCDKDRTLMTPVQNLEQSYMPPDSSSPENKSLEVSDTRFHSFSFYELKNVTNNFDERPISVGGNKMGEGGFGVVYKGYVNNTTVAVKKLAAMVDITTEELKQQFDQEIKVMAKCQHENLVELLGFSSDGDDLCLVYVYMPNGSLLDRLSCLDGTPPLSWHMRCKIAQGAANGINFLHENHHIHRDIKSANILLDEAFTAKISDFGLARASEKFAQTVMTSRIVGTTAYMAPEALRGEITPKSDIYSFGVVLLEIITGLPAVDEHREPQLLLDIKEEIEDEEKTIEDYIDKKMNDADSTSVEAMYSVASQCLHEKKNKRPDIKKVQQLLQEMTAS
As to the kind of experiment: Target protein degradation effect in K562 IRAK4-HiBiT cells (Nano-Glo HiBiT). In kind it is cell-based. Conditions: incubated 16 to 18 hours. How it is done: Experimental purpose: In this experiment, the degradation effect of the test compound on the target protein IRAK4 in K562 IRAK4-HiBiT cells was detected.
• Cells: K562 IRAK4-HiBiT cells • Culture media: RPMI 1640+10% FBS+2 mM GlutaMax+1 mM sodium pyruvate+penicillin/streptomycin • Positive control: 1000 nM; negative control: 0.1% DMSO
• (1). The compound to be tested in powder form was dissolved in DMSO to 10 mM as a storage concentration, and 9 μL of the 10 mM compound to be tested was manually pipetted to column 1 and column 13 of an LDV plate using a pipette; • (2). 6 μL of DMSO was added to columns 2 to 12 and 14 to 24 using Multidrop Combi; [0688](3). the compound to be tested was 3-fold diluted (3 μL+6 μL) from columns 1 to 11 and 13 to 23 using Bravo; • (4). 25 nL of compound solution (columns 1 to 24 of the LDV plate) was transferred to an assay plate using Echo according to the plate layout; • (5). 25 nL of 1 mM positive control solution was transferred to the assay plate as a 100% degradation control (i.e., LC, HPE) and 25 nL of DMSO was transferred to the assay plate as a 0% control (i.e., HC, ZPE) using Echo.
• (1). The cell culture medium was discarded, and the cells were washed once with DPBS, digested with trypsin, and counted to prepare a cell suspension of […]; • (2). 25 µL/well of cell suspension was added to the assay plate containing the compound to be tested using Multidrop Combi at medium speed; • (3). the assay plate containing cells was returned to an incubator with 5% CO2 at 37° C. and incubated for 16 to 18 hours.
• (1). 25 µL/well of assay reagent (NanoGlo lysis buffer+substrate+LgBit protein) was added to the assay plate using Multidrop Combi at high speed, and the plate was shaken for 10 minutes; • (2). the plate was centrifuged at 2000 rpm for 1 minute to remove air bubbles; • (3). the plate was read on Envision using US Luminescence detection method.
The inhibition rate (IR) of the test compound was calculated using the following formula: IR (%)=(RLU vehicle control−RLU compound)/(RLU vehicle control−RLU positive control)×100%, and the vehicle control is the blank control. The inhibition rates of compounds at different concentrations were calculated in Excel, and then XLFit software was used to plot inhibition curves and calculate relevant parameters, including minimum inhibition rate, maximum inhibition rate, and DC50.
(The HiBiT peptide binds its large partner to form an active luciferase.)

Series [1] is described as follows: Pharmacokinetic evaluation in mice, experimental operation B (C57BL/6N). The format is in vivo. The note with it: C57BL/6N mice. The text has this:
In this study, CD-1 or C57BL/6N male mice were selected as test animals, and LC/MS/MS method was used to quantify plasma concentrations of the test compound intravenously injected or intragastrically administered to mice at different time points, so as to evaluate the pharmacokinetic profile of the test drug in mice.
CD-1 mice (male, 20 to 35 g, 7 to 10 weeks old, Beijing Vital River) or C57BL/6N mice (male, 20 to 30 g, 7 to 10 weeks old, Beijing Vital River)
A clarified solution or suspension of the test compound was injected into C57BL/6N mice (overnight fasting) via the tail vein (vehicle: 5% DMSO/10% Solutol/85% H2O), or intragastrically administered into C57BL/6N mice (overnight fasting). For intravenous injection, […] of blood was collected via the cheek puncture at 0 h (pre-administration) and 0.083 h, 0.25 h, 0.5 h, 1 h, 2 h, 4 h, 6 h, 8 h, and 24 h after administration, and placed in an anticoagulant tube added with heparin sodium. The mixture was thoroughly vortexed and mixed, and centrifuged at 6000 g for 3 minutes at 2 to 8° C. For oral administration, blood was collected via the cheek puncture at 0 h (pre-administration) and 0.083 h, 0.25 h, 1 h, 2 h, 4 h, 6 h, 8 h, and 24 h after administration, and placed in an anticoagulant tube added with heparin sodium. The mixture was thoroughly vortexed and mixed, and centrifuged at 6000 g for 3 minutes at 2 to 8° C. Plasma concentrations were determined by LC-MS/MS method, and relevant pharmacokinetic parameters were calculated using Phoenix WinNonlin 8.2.0 pharmacokinetic software with non-compartmental model linear-log trapezoidal method.

[2] abbreviates: Intragastric administration 10 mg/kg.

Structures can show the parent of a compound that is named as a salt.

Usually DC50 stands for the concentration at which degradation of the target reaches its halfway point. A high value points to a less potent degrader. In general, bioavailability refers to dose-corrected exposure relative to a reference, in per cent. As a reminder, the clearance is the rate of elimination divided by the concentration. A higher clearance goes with a high capacity for elimination. The half-life is how long it takes for the measured level to halve. Take `O=C1CCC(c2noc3c(NC(=O)CN4CCN(C[C@H]5CC[C@H](n6cc(NC(=O)c7cnn8ccc(N9C[C@H]%10C[C@@H]9CO%10)nc78)c(C(F)F)n6)CC5)CC4)cccc23)C(=O)N1` (stereo partly shown) [Hydrochloride of WX015]: on IRAK4, it took 4.12 nM to reach half-maximal degradation (DC50) and the Maximum inhibition rate was found to be 106.70%. In series [1] (setting [2]), the “Area under the drug-time curve (0-inf)” value stood at 2.51 µM·h, the Peak concentration amounted to 0.4 µM and the “Time to peak concentration” value came to 1.33 h. For the same compound, in series [1] (Intravenous injection 2 mg/kg), the “Area under the drug-time curve (0-inf)” value was 1.45 µM·h. Besides, the bioavailability in series [1] (male, mouse, plasma, IV 2 mg/kg, PO 10 mg/kg, read-out: Bioavailability F) worked out at 34.6%. Also, the clearance in series [1] (male, mouse, plasma, Intravenous injection 2 mg/kg) amounted to 27.6 mL/min/kg. For the same compound, in series [1] (male, mouse, plasma, Intravenous injection 2 mg/kg, read-out: Apparent volume of distribution), the Vd is 4.82 L/kg. The half-life in series [1] (male, mouse, plasma, Intravenous injection 2 mg/kg, read-out: Elimination half-life (converted)) is 255 min.
